Test results published in ChEMBL document CHEMBL4428111, “Antiplasmodial activity of alkyl-substituted 1,2-dioxetanes against Plasmodium falciparum” (Bioorg Med Chem Lett, 2016).
≈ marks a conversion by molar mass, not a printed value.

Columns and labels:
[1] = test system: Erythrocyte; assay: Hemolytic activity against human RBC assessed as reduction in hemoglobin release after 24 hrs by spectrophotometric method; type: ADME, cell-based
[2] = test system: Plasmodium falciparum; assay: Antiplasmodial activity against chloroquine-resistant/mefloquine-sensitive Plasmodium falciparum W2 schizonts infected in human erythrocytes assessed as inhibition of parasite invasion after 24 hrs by Diff-Quick staining based microscopic analysis; type: functional, organism-based; conditions: W2, 24 h
[3] = test system: Plasmodium falciparum; assay: Antiplasmodial activity against chloroquine-resistant/mefloquine-sensitive Plasmodium falciparum W2 schizonts infected in human erythrocytes assessed as inhibition of parasite invasion at 10^-4 mol/L after 24 hrs by Diff-Quick staining based microscopic analysis relative to control; type: functional; conditions: W2, 24 h
[4] = test system: Plasmodium falciparum; assay: Antiplasmodial activity against chloroquine-resistant/mefloquine-sensitive Plasmodium falciparum W2 schizonts infected in human erythrocytes assessed as inhibition of parasite invasion at 10^-7 mol/L after 24 hrs by Diff-Quick staining based microscopic analysis relative to control; type: functional; conditions: W2, 24 h
[5] = test system: Plasmodium falciparum; assay: Antiplasmodial activity against chloroquine-resistant/mefloquine-sensitive Plasmodium falciparum W2 schizonts infected in human erythrocytes assessed as inhibition of parasite invasion at 10^-6 mol/L after 24 hrs by Diff-Quick staining based microscopic analysis relative to control; type: functional; conditions: W2, 24 h
[6] = test system: Plasmodium falciparum; assay: Antiplasmodial activity against chloroquine-resistant/mefloquine-sensitive Plasmodium falciparum W2 schizonts infected in human erythrocytes assessed as parasite invasion after 24 hrs by Diff-Quick staining based microscopic analysis (reference value: 15.26 +/- 2.13%); type: functional
[7] = test system: Plasmodium falciparum; assay: Antiplasmodial activity against chloroquine-resistant/mefloquine-sensitive Plasmodium falciparum W2 schizonts infected in human erythrocytes assessed as inhibition of parasite invasion at 10^-12 mol/L after 24 hrs by Diff-Quick staining based microscopic analysis relative to control; type: functional; conditions: W2, 24 h
[8] = test system: Erythrocyte; assay: Hemolytic activity against human RBC assessed as reduction in hemoglobin release at 10^-8 M after 24 hrs by spectrophotometric method relative to control; type: ADME, cell-based; parameters: scale not given: the % may be the effect or the level left; conditions: 0.01 µM
[9] = test system: Plasmodium falciparum; assay: Antiplasmodial activity against chloroquine-resistant/mefloquine-sensitive Plasmodium falciparum W2 schizonts infected in human erythrocytes assessed as inhibition of parasite invasion at 10^-8 mol/L after 24 hrs by Diff-Quick staining based microscopic analysis relative to control; type: functional; conditions: W2, 24 h
[10] = test system: Plasmodium falciparum; assay: Antiplasmodial activity against chloroquine-resistant/mefloquine-sensitive Plasmodium falciparum W2 schizonts infected in human erythrocytes assessed as inhibition of parasite invasion at 10^-10 mol/L after 24 hrs by Diff-Quick staining based microscopic analysis relative to control; type: functional; conditions: W2, 24 h
[11] = test system: Plasmodium falciparum; assay: Antiplasmodial activity against chloroquine-resistant/mefloquine-sensitive Plasmodium falciparum W2 schizonts infected in human erythrocytes assessed as inhibition of parasite invasion at 10^-9 mol/L after 24 hrs by Diff-Quick staining based microscopic analysis relative to control; type: functional; conditions: W2, 24 h
[12] = Therapeutic index, ratio of MHC for human RBC to MIC for chloroquine-resistant/mefloquine-sensitive Plasmodium falciparum W2 schizonts infected in human erythrocytes; type: toxicity, cell-based; conditions: read-out: TI
[13] = test system: Plasmodium falciparum; assay: Antiplasmodial activity against chloroquine-resistant/mefloquine-sensitive Plasmodium falciparum W2 schizonts infected in human erythrocytes assessed as inhibition of parasite invasion at 10^-5 mol/L after 24 hrs by Diff-Quick staining based microscopic analysis relative to control; type: functional; conditions: W2, 24 h
[14] = test system: Plasmodium falciparum; assay: Antiplasmodial activity against chloroquine-resistant/mefloquine-sensitive Plasmodium falciparum W2 schizonts infected in human erythrocytes assessed as inhibition of parasite invasion after 24 hrs by Diff-Quick staining based microscopic analysis relative to artemisinin; type: functional
[15] = test system: Plasmodium falciparum; assay: Antiplasmodial activity against chloroquine-resistant/mefloquine-sensitive Plasmodium falciparum W2 schizonts infected in human erythrocytes assessed as inhibition of parasite invasion at 10^-11 mol/L after 24 hrs by Diff-Quick staining based microscopic analysis relative to control; type: functional; conditions: W2, 24 h
[16] = test system: Plasmodium falciparum; assay: Antiplasmodial activity against chloroquine-resistant/mefloquine-sensitive Plasmodium falciparum W2 schizonts infected in human erythrocytes assessed as inhibition of parasite invasion at 10^-14 mol/L after 24 hrs by Diff-Quick staining based microscopic analysis relative to control; type: functional; conditions: W2, 24 h

SMILES: C[C@@H]1CC[C@H]2[C@@H](C)C(=O)O[C@@H]3O[C@@]4(C)CC[C@@H]1[C@]32OO4 [ARTEMISININ]
- MHC [1]: 1 ×10⁻⁴ M
- IC50 [2]: 10 to 20 nM
- MIC [2]: 0.001 nM (≈ 0.000282 ng/mL)
- inhibition at 100 µM [3]: 100%
- inhibition at 0.1 µM [4]: 82.2 to 85.4%
- inhibition at 1 µM [5]: 99 to 100%
- Activity [6]: 5.58%
- inhibition at 1 pM [7]: 38.5 to 40.6%
- Activity [8]: 1.5%
- inhibition at 0.01 µM [9]: 63.4 to 67.4%
- inhibition at 0.0001 µM [10]: 43.1 to 48.7%
- inhibition at 0.001 µM [11]: 52.3 to 54%

SMILES: CC1(C)OOC1(C)C
- MHC [1]: 1 ×10⁻⁵ M
- IC50 [2]: 45 nM
- MIC [2]: 0.001 nM (≈ 0.000116 ng/mL)
- inhibition at 0.1 µM [4]: 60.2 to 60.3%
- selectivity ratio [12]: 1e+07
- inhibition at 1 µM [5]: 74.7 to 79.4%
- Activity [6]: 9.83%
- inhibition at 10 µM [13]: 81 to 84%
- inhibition at 1 pM [7]: 16.7 to 17.4%
- Activity [8]: 1.4%
- inhibition at 0.01 µM [9]: 35.6 to 36.3%
- fold change (FC) [14]: 0.45
- inhibition at 0.0001 µM [10]: 23.4 to 25.6%

SMILES: C1C2CC3CC1CC(C2)C31OOC12C1CC3CC(C1)CC2C3 (configuration not stated)
- MHC [1]: 1 ×10⁻⁶ M
- IC50 [2]: 0.19 nM
- inhibition at 1 µM [5]: 65.6 to 67%
- inhibition at 10 pM [15]: 24.6 to 25.4%
- Activity [6]: 6.01%
- inhibition at 1 pM [7]: 20.5 to 21.2%
- Activity [8]: 2%
- inhibition at 0.01 µM [9]: 64 to 65.8%
- fold change (FC) [14]: 105
- inhibition at 0.0001 µM [10]: 36.2 to 38.8%
- inhibition at 0.001 µM [11]: 53.4 to 54.4%
- inhibition at 10 fM [16]: 16.7 to 18.4%
